Results taken from patent US9222928B2, “Biphenol ether compounds as markers for liquid hydrocarbons and other fuels and oils” (Dow Global Technologies LLC, priority 2011, dated 2015).

In the case of `CCCCCCCCCCCCOc1ccccc1-c1ccccc1OCCCCCCCCCCCC` [BDD-BBPh, 2,2′-Bis(dodecyloxy)-1,1′-biphenyl], the melting point is reported as 33 to 35 °C.
